Columns and labels:
[1] = tested on: BRD pathogens, M. haemolytica and P. multocida; assay: MIC screening panel, BRD pathogens (CLSI broth micro-dilution); assay type: cell-based; conditions: BRD pathogenic strains / target pathogens; read-out: MIC
In short: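 MICs were determined by CLSI broth micro-dilution in cation-adjusted Mueller Hinton Broth at about 5×10^5 CFU/mL, with QC strains included. Incubation was 18-22 h at 35-37° C. in air, 5% CO2 or anaerobically (up to 48 h) depending on strain. BRD pathogens were first tested at a top concentration of 64 μg/mL in an eleven-point dilution series.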

[2] = tested on: lung tissue gene expression, upstream regulators; assay: Lung tissue RNA sequence analysis with ingenuity pathway analysis, murine P. multocida challenge; assay type: in vivo, mice; conditions: M9 32 mg/kg
Protocol: In one murine P. multocida intranasal challenge study, mice were administered tulathromycin (16 mg/kg; T02), M9 (32 mg/kg; T03), or ceftiofur (9 mg/kg; T04) by subcutaneous injection 18 hours after bacterial challenge (5×10^3 CFU/mouse) for lung tissue RNA sequence analysis. Survival at Day 7 was about 80%, 50%, and 90% for T02, T03, and T04, respectively, compared to placebo at 0%. Differential gene expression from total lung tissue RNA sequence analysis indicated at least 226 unique genes were up or down regulated (with significance) for T03. Output from ingenuity pathway analysis of these unique genes predicted major upstream regulators of the involved pathways. Data was analyzed based on the number of genes being modulated in the same direction that were associated with a given upstream regulator. An activation z-score of 2 or greater is considered significant and the direction change is indicated by + (activated) or -(inhibited). The top 5 pathways included: IL-9 signaling, glucocorticoid receptor signaling, prolactin signaling, JAK STAT signaling, and IL-17 signaling. The top 6 upstream regulators (activation z-score) included: lipopolysaccharide (−6.725), TNF (−4.669), IFNγ (−5.759), IL-1β (−5.947), STAT1 (−2.787), and poly rl: rC-RNA (−5.289). Even though this study was run in the murine model, the top upstream regulators identified as being modulated by M9 include an almost ubiquitous overlap with the pathways identified in the natural disease study as being key mediators in BRD, and therefore is modulating highly relevant pathways in BRD pathobiology.

[3] = PK study, plasma concentration; assay type: in vivo; conditions: 10 mg/kg dose
Protocol: The primary clinical endpoint for efficacy was treatment failure/success over a 14-day observation period. Clinically normal beef calves (150-200 kg) at moderate risk for BRD were dosed on arrival to the feedlot. Animals (N=114/group) received saline (T01), 5 mg/kg M9 (T02) or 10 mg/kg M9 (T03); or Zactran (T04).

[4] = tested on: M. haemolytica (strain: OSU-012103-BHI); assay: Bovine M. haemolytica intratracheal lung challenge model, mortality; assay type: in vivo; conditions: 6 animals
Protocol: To evaluate immunomodulation effects and potential biomarkers, a bovine M. haemolytica (strain: OSU-012103-BHI) intratracheal lung challenge model study was completed utilizing M9 treatment in the presence and absence of bacterial challenge and a Draxxin® comparator. […] Animals were administered 0.05 mL/kg saline (T01), 10 mg/kg M9 (T02); Draxxin 2.5 mg/kg (T03) and 10 mg/kg M9 (T04) by subcutaneous injection on Day-1. Dose was based on body weight. Animals were challenge on Day 0 with the exception of T04. Blood was collected longitudinally throughout the study for biomarker evaluation panel (e.g., IL-6 and CD163) including two baseline samples prior to treatment. FIG. 4A depicts the area under the curve concentrations for IL-6 protein for individual animals against percent lung lesion scores and FIG. 4B depicts the CD163 fold change area under the curve for individual animals against percent lung lesion scores. Data is represented as percent lung lesion scores against the area under the curve (AUC) for IL-6 protein (immunoassay expressed in pg/mL) and CD163 (flow cytometric mean fluorescent intensity (MFI) in fold change from baseline). In both assays, a 2-fold change is typically considered to be relevant.

SMILES: CCCNC[C@]1(O)[C@H](C)O[C@@H](O[C@H]2[C@H](C)[C@@H](O[C@@H]3O[C@H](C)C[C@H](NC)[C@H]3O)[C@](C)(O)C[C@@H](C)CN[C@H](C)[C@@H](O)[C@](C)(O)[C@@H](CC)OC(=O)[C@@H]2C)C[C@@]1(C)OC [Example M9, (2R,3S,4R,5R,8R,10R,11R,12S,13S,14R)-2-ethyl-3,4, 10-trihydroxy-13-(((2R,4R,5S,6S)-5-hydroxy-4-methoxy-4,6-dimethyl-5-((propylamino)methyl)-tetrahydro-2H-pyran-2-yl)oxy)-11-(((2S,3R,4S,6R)-3-hydroxy-6-methyl-4-(methylamino)tetrahydro-2H-pyran-2-yl)oxy)-3,5,8,10,12,14-hexamethyl-1-oxa-6-azacyclopentadecan-15-one]
- MIC [1]: ≤ 64 µg/mL
- unique genes up or down regulated (with significance) ([2]; total lung tissue RNA sequence analysis): at least 226
- activation z-score, upstream regulator IFNγ ([2]; − = inhibited): −5.759
- activation z-score, upstream regulator IL-1β ([2]; − = inhibited): −5.947
- activation z-score, upstream regulator STAT1 ([2]; − = inhibited): −2.787
- activation z-score, upstream regulator TNF ([2]; − = inhibited): −4.669
- activation z-score, upstream regulator lipopolysaccharide ([2]; − = inhibited): −6.725
- activation z-score, upstream regulator poly rl: rC-RNA ([2]; − = inhibited): −5.289
- maximum plasma concentration [3]: 5 µg/mL
- Mortality ([4]; M. haemolytica challenge Day 0, subcutaneous Day -1, M9 10 mg/kg, Draxxin 2.5 mg/kg): 1/6
- Mortality ([4]; No challenge, M9 10 mg/kg subcutaneous Day -1): 0/6
